Measurements as given in patent US20120009277A1, “METHOD FOR SELECTION OF NOVEL ANTI-CANCER HERBS USING CHEMINFORMATIC TOOLS” (priority 2010, published 2012).

Experiments:
Format in all cases: cell-based
[1] = test system: A2780/cp (human ovarian carcinoma, resistant to cisplatin); assay: MTT cytotoxicity assay on A2780/cp cells, single agents and cisplatin combinations; details: cisplatin alone, 24 hr
Procedure: (§1) Anticancer drug resistant cancerous cell lines; A2780/cp (human ovarian carcinoma, resistant to cisplatin) NCBI C454, ACHN (human renal adenocarcinoma) NCBI C206, and normal cell line HF2 (human fetal fibroblast) NCBI C336 herein used as a cell negative control are obtained from National Cell Bank of Iran, Pasture Institute of Iran (Tehran). These cells are maintained in RPMI 1640 medium supplemented with 10% FCS in a humidified incubator (37° C. and 5% CO2).
(§2) Cells are cultured in RPMI-1640 medium supplemented with 10% heat inactivated FCS, 2 mM glutamine, penicillin ([…]) and streptomycin (100 μg/ml) at 37° C. in an incubator containing 5% CO2.
(§3) Harvested cells with trypsin (0.25%) are counted by Neubauer slide and then are seeded into 96-well plates (104 cell/well). […] The insoluble formazan produced is dissolved in solution containing 100 μl DMSO (Dimethyl sulfoxide) and Optical Density (absorbance) is read against blank reagent with Multiwell scanning spectrophotometer (ELISA reader, Organon Tekninka, the Netherlands) at a wavelength of 545 nm. The percentage of cytotoxicity is calculated according to following equations: […]

[2] = test system: HF2 (human fetal fibroblast); assay: MTT cytotoxicity assay on HF2 normal cells, single agents and doxorubicin combinations; details: doxorubicin alone, 24 hr
Procedure: as §1, §2, §3

[3] = test system: ACHN (human renal adenocarcinoma); assay: MTT cytotoxicity assay on ACHN cells, single agents and doxorubicin combinations; details: doxorubicin alone, 24 hr
Procedure: as §1, §2, §3

SMILES	IC50 [1] [µM]	IC50 [2] [µM]	IC50 [3] [µM]
N.N.[Cl][Pt][Cl] [Cisplatin]	42.5	–	–
COc1cccc2c1C(=O)c1c(O)c3c(c(O)c1C2=O)C[C@@](O)(C(=O)CO)C[C@@H]3O[C@H]1C[C@H](N)[C@H](O)[C@H](C)O1 [Doxorubicin]	–	1.31	3.92
